According to article PMC10771590, “Pathway crosstalk between the central metabolic and heme biosynthetic pathways in Phanerochaete chrysosporium” (Applied Microbiology and Biotechnology, 2024):

Columns and labels:
pig CS = target: T1, pig CS (Sus scrofa, UniProt P00889); experiment: Inhibitory effect of hemin on pig CS (SsCS) reaction; assay type: biochemical; settings: 0–5.7 µM hemin, incubated 0 or 60 min at 4 °C (Supplemental Fig. S2)
T1 sequence (P00889 28-464): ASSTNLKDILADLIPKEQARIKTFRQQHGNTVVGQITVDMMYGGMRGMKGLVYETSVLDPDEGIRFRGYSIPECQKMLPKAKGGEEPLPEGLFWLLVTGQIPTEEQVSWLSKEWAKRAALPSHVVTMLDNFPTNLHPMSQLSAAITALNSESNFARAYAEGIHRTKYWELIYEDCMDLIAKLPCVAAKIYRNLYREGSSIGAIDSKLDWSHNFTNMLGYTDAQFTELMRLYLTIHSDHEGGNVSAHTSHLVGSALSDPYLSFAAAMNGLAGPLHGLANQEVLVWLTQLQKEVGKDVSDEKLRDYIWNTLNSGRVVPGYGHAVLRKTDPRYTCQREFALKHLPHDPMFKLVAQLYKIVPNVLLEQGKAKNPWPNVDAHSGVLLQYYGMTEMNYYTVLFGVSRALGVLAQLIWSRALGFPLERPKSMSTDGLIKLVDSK
Source text: One heme-responsive-motif (HRM) was found in PcCS, which could be a possible heme-binding site (Lathrop and Timko [1993]; Zhang and Guarente [1995]; Ishikawa et al. [2005]; Yamanaka et al. [2003]). From the alignment analysis, only certain fungi contain HRM (CP motif) in their CSs (Supplemental Fig. S1). No mammalian CS contains HRM (Supplemental Fig. S1). […] Furthermore, the His residue corresponding to His^347 in PcCS was conserved in either mammalian or fungal CSs. Combining all the data, the heme-binding site is concluded to be His^347 of PcCS.
Concentration of hemin (nM)
Figure S2 Inhibitory effect of hemin on SsCS reaction. Reaction mixtures containing
1.5 nM SsCS, 40 mM Tris/HCl (pH 8.5) and 0, 0.5, 1.2 and 5.7 µM hemin were incubated […]

[1] = target: T2, recombinant PcGAPDH (rPcGAPDH) (Phanerodontia chrysosporium, UniProt Q01982); experiment: GAPDH assay and steady-state kinetic analysis; assay type: biochemical, Phanerochaete chrysosporium; settings: rPcGAPDH
T2 construct: 6xHis-tag (pET-30) (cleaved yes); made in house; host or cells: E. coli BL21(DE3)pLysS
T2 sequence (Q01982 whole entry): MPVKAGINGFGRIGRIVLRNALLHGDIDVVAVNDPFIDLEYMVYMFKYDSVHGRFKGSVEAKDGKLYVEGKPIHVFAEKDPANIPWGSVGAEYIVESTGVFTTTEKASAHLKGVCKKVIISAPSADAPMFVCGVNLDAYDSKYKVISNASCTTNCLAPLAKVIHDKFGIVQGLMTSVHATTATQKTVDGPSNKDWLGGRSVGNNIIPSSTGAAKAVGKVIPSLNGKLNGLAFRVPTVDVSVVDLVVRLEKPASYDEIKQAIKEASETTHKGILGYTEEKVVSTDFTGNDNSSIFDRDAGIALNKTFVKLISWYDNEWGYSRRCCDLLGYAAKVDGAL
Experimental: GAPDH assay was performed as previously described (Campanale et al. [2003]). For steady-state kinetic analysis, the reaction mixture (1 ml) contained 40 mM phosphate (pH 7.6), 5.2 μg recombinant PcGAPDH (rPcGAPDH), 40 mM triethanolamine, 5 mM NAD^+, and 0.6–2 mM glyceraldehyde 3-phosphate (GAP3). Reactions were monitored by the increase in absorbance at 340 nm (ε 6220 M^–1 cm^–1) for 1 min, and initial velocities were determined. Inhibitory experiments were done in the presence of 0–2.5 μM hemin. To examine the effect of hemin on GAPDH kinetics, PcGAPDH was incubated with either buffer (control) or hemin for 5 min prior to initiating the reaction. Kinetic parameters were determined from Lineweaver–Burk plots, and Ki values were determined from the secondary plot of each slope of the Lineweaver–Burk plots. Immediately prior to use, hemin was dissolved at 10 mM in 0.1 M NaOH and diluted with 40 mM Tris–HCl (pH 7.5).
Fig. 2 Heterologous expression of PcGAPDH and inhibitory effect of hemin on GAPDH reaction. A M, molecular weight marker; lane 1, rPcGAPDH-His-tag; lane 2, His-tag-cleaved rPcGAPDH. B Reaction mixtures containing 2.5 nM rPcGAPDH, 40 mM phosphate (pH 7.6), 40 mM triethanolamine, 5 mM NAD^+, and 0.6–2 mM GAP3. […] Inset: secondary plots of each slope of Lineweaver–Burk plots against the concentration of hemin for determining inhibition constants. C Reaction mixtures containing 2.5 nM rPcGAPDH, 40 mM phosphate (pH 7.6), 40 mM triethanolamine, 5 mM NAD^+, and 0.6 mM GAP3. Reactions were started by adding substrates followed by 5-min incubation with either buffer or 1 μM inhibitor (hemin or protoporphyrin IX, PPIX). […] All experiments were performed in triplicate. Bars indicated as mean values ± standard deviation (error bars)

C=CC1=C(C)c2cc3[nH]c(cc4nc(cc5[nH]c(cc1n2)c(C)c5CCC(=O)O)C(CCC(=O)O)=C4C)c(C)c3C=C.[Fe+3] [hemin]
effect on pig CS activity (pig CS): inhibited
inhibitory pattern (steady-state analysis) ([1]; GAP3 as variable substrate): mixed type
Ki ([1]; pH 7.6, 5 mM NAD+, 0.6–2 mM GAP3, 0–2.5 μM hemin, read-out: Ki (inhibition constant from secondary plot)): 1000 nM
